The compounds below were run against ROCK2 (Homo sapiens (Human), UniProt O75116) (assay: ROCK2 kinase inhibition assay (FITC peptide substrate, LABCHIP 3000 Reader)). Settings: 5 μM ATP, 1.5 μM peptide substrate.
Assay type: biochemical
Description: The effectiveness of compounds of the present invention as ROCK inhibitors can be determined in a 30 μL assay containing 20 mM HEPES, pH 7.5, 20 mM MgCl2, 0.015% Brij-35, 4 mM DTT, 5 μM ATP and 1.5 μM peptide substrate (FITC-AHA-AKRRRLSSLRA-OH) (SEQ ID NO. 1). Compounds were dissolved in DMSO so that the final concentration of DMSO was <2%, and the reaction was initiated with Rho kinase variants. After incubation, the reaction was terminated by the addition of EDTA and the phosphorylated and non-phosphorylated peptides separated using a LABCHIP® 3000 Reader (Caliper Life Sciences). […] Compounds were tested in dose-response format, and the inhibition of kinase activity was calculated at each concentration of compound. The inhibition data were fit using a curve-fitting program to determine the IC50; i.e., the concentration of compound required to inhibit 50% of kinase activity.
Representative examples were tested in the ROCK2 assay described above and found having ROCK2 inhibitory activity.

Sequence of ROCK2 (O75116 whole entry, species assumed): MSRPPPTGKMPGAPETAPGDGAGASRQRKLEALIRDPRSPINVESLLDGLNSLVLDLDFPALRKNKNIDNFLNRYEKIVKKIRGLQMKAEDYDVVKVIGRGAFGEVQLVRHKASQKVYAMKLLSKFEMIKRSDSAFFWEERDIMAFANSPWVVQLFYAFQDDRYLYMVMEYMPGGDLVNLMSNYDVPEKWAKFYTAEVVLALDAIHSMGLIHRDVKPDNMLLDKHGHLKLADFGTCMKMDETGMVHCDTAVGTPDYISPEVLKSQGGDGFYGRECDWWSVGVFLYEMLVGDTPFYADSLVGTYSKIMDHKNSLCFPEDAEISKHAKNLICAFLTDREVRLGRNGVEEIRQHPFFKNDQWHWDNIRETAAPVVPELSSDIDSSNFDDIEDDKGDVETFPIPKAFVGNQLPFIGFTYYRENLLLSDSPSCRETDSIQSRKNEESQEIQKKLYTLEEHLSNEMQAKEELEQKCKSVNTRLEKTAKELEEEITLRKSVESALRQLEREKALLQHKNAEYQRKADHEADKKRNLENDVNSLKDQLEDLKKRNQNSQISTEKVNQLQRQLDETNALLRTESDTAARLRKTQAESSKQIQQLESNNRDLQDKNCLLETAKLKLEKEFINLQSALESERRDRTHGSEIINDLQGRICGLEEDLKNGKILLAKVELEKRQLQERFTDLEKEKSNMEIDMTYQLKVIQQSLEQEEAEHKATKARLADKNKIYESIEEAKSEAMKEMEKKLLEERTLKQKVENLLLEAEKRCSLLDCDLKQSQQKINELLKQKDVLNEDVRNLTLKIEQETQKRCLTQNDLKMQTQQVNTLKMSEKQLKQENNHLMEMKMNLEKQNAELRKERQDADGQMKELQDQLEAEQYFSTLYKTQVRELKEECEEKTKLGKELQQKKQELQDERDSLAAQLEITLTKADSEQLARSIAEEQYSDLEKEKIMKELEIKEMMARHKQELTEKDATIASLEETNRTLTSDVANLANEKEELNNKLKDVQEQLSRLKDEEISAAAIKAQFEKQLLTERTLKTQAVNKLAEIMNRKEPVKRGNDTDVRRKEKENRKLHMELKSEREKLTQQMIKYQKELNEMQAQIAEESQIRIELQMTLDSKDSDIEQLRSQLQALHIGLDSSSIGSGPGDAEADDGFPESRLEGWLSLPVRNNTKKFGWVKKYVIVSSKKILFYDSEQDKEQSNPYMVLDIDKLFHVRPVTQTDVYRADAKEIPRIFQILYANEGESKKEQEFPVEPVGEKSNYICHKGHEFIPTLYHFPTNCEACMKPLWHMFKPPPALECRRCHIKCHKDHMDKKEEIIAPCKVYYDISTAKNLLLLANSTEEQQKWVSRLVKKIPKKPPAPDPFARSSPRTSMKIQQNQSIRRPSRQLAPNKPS

Structure (SMILES)	IC50
O=C1N(c2ccc(-c3cn[nH]c3)cc2)CC2(CCOCC2)N1Cc1cccc(OCC2CC2)c1 [Example 11, 3-(4-(1H-pyrazol-4-yl)phenyl)-1-(3-(cyclopropylmethoxy)benzyl)-8-oxa-1,3-diazaspiro[4.5]decan-2-one]	3 to 30 nM
COc1cccc(CN2C(=O)N(c3ccc(-c4cn[nH]c4)cn3)CC23CCN(CCO)CC3)c1 [Example 159, 3-(5-(1H-pyrazol-4-yl)pyridin-2-yl)-8-(2-hydroxyethyl)-1-(3-methoxybenzyl)-1,3,8-triazaspiro[4.5]decan-2-one]	< 3 nM
COc1cccc(CN2C(=O)N(c3ccc(-c4cn[nH]c4)c(OC)n3)CC23CCN(C2COC2)CC3)c1 [Example 238, 3-(6-methoxy-5-(1H-pyrazol-4-yl)pyridin-2-yl)-1-(3-methoxy-benzyl)-8-(oxetan-3-yl)-1,3,8-triazaspiro [4.5]decan-2-one]	< 3 nM
Cc1c(F)cccc1CN1C(=O)N(c2ccc(-c3cn[nH]c3)cc2)CC12CCN(C(=O)C1(C)COC1)CC2 [Example 189, 3-(4-(1H-pyrazol-4-yl)phenyl)-1-(3-fluoro-2-methylbenzyl)-8-(3-methyloxetane-3-carbonyl)-1,3,8-triazaspiro[4.5]decan-2-one]	3 to 30 nM
COc1cccc(CN2C(=O)N(c3ccc(-c4cn[nH]c4)cc3)CC23CC[N+]([O-])(CCO)CC3)c1 (centres unmarked) [Example 145, 3-(4-(1H-pyrazol-4-yl)phenyl)-8-(2-hydroxyethyl)-1-(3-methoxybenzyl)-2-oxo-1,3,8-triazaspiro[4.5]decane 8-oxide]	< 3 nM
CCc1nc(N2CC3(CCN(C(=O)OC(C)(C)C)CC3)N(Cc3cccc(OC)c3)C2=O)ccc1-c1cn[nH]c1 [Example 53, tert-butyl 3-(6-ethyl-5-(1H-pyrazol-4-yl)pyridin-2-yl)-1-(3-methoxybenzyl)-2-oxo-1,3,8-triazaspiro[4.5]decane-8-carboxylate]	30 to 250 nM
O=C1N(c2ccc(-c3cn[nH]c3)cc2)CC2(CCOCC2)N1Cc1ccc(F)c(F)c1 [Example 17, 3-(4-(1H-pyrazol-4-yl)phenyl)-1-(3,4-difluorobenzyl)-8-oxa-1,3-diazaspiro[4.5]decan-2-one]	3 to 30 nM
CCOC(=O)N1CCC2(CC1)CN(c1ncc(-c3cn[nH]c3)c(OC)n1)C(=O)N2Cc1cccc(OC)c1 [Example 112, ethyl 3-(4-methoxy-5-(1H-pyrazol-4-yl)pyrimidin-2-yl)-1-(3-methoxybenzyl)-2-oxo-1,3,8-triazaspiro[4.5]decane-8-carboxylate]	3 to 30 nM
CCN(C)C(=O)c1cccc(CN2C(=O)N(c3ccc(-c4cn[nH]c4)cc3)CC23CCOCC3)c1 [Example 41, 3-((3-(4-(1H-pyrazol-4-yl)phenyl)-2-oxo-8-oxa-1,3-diazaspiro[4.5]decan-1-yl)methyl)-N-ethyl-N-methylbenzamide]	30 to 250 nM
Cc1c(F)cccc1CN1C(=O)N(c2ccc(-c3cn[nH]c3)cc2)CC12CCN(CC(F)F)CC2 [Example 131, 3-(4-(1H-pyrazol-4-yl)phenyl)-8-(2,2-difluoroethyl)-1-(3-fluoro-2-methylbenzyl)-1,3,8-triazaspiro[4.5]decan-2-one]	< 3 nM
COc1cc(F)cc(CN2C(=O)N(c3ccc(-c4cn[nH]c4)cc3)CC23CCN(C(=O)C(C)(C)O)CC3)c1 [Example 190, 3-(4-(1H-pyrazol-4-yl)phenyl)-1-(3-fluoro-5-methoxybenzyl)-8-(2-hydroxy-2-methylpropanoyl)-1,3,8-triazaspiro[4.5] decan-2-one]	< 3 nM
COc1cccc(CN2C(=O)N(c3ccc(-c4cn[nH]c4)cn3)CC23CCN(C(C)=O)CC3)c1 [Example 84, 3-(5-(1H-pyrazol-4-yl)pyridin-2-yl)-8-acetyl-1-(3-methoxybenzyl)-1,3,8-triazaspiro[4.5]decan-2-one]	< 3 nM
CCc1nc(N2CC3(CCN(C(=O)C4CC(F)(F)C4)CC3)N(Cc3cccc(OC)c3)C2=O)ccc1-c1cn[nH]c1 [Example 202, 8-(3,3-difluorocyclobutane-carbonyl)-3-(6-ethyl-5-(1H-pyrazol-4-yl)pyridin-2-yl)-1-(3-methoxybenzyl)-1,3,8-triazaspiro[4.5]decan-2-one]	< 3 nM
COc1cc(CN2C(=O)N(c3ccc(-c4cn[nH]c4)cc3)CC23CC3)ccc1F [Example 6, 6-(4-(1H-pyrazol-4-yl)phenyl)-4-(4-fluoro-3-methoxybenzyl)-4,6-diazaspiro[2.4]heptan-5-one]	< 3 nM
COC(=O)N1CCC2(CC1)CN(c1ncc(-c3cn[nH]c3)c(OC)n1)C(=O)N2Cc1cccc(OC)c1 [Example 111, methyl 3-(4-methoxy-5-(1H-pyrazol-4-yl)pyrimidin-2-yl)-1-(3-methoxybenzyl)-2-oxo-1,3,8-triazaspiro[4.5]decane-8-carboxylate]	3 to 30 nM
COc1cccc(CN2C(=O)N(c3ccc(-c4cn[nH]c4)cc3)CC23CCN(C(=O)OC(C)(C)C)CC3)c1 [Example 48, tert-butyl 3-(4-(1H-pyrazol-4-yl)phenyl)-1-(3-methoxybenzyl)-2-oxo-1,3,8-triazaspiro[4.5]decane-8-carboxylate]	3 to 30 nM
COC(=O)N1CCC2(CC1)CN(c1ccc(-c3cn[nH]c3)cc1)C(=O)N2Cc1cccc(F)c1C [Example 108, methyl 3-(4-(1H-pyrazol-4-yl)phenyl)-1-(3-fluoro-2-methylbenzyl)-2-oxo-1,3,8-triazaspiro[4.5]decane-8-carboxylate]	< 3 nM
COc1cccc(CN2C(=O)N(c3ccc(-c4cn[nH]c4)c(OC)n3)CC23CCN(CCC(F)(F)F)CC3)c1 [Example 136, 3-(6-methoxy-5-(1H-pyrazol-4-yl)pyridin-2-yl)-1-(3-methoxybenzyl)-8-(3,3,3-trifluoropropyl)-1,3,8-triazaspiro[4.5]decan-2-one]	< 3 nM
CCc1nc(N2CC3(CCN(CC(C)O)CC3)N(Cc3cc(F)cc(OC)c3)C2=O)ccc1-c1cn[nH]c1 (centres unmarked) [Example 154, 3-(6-ethyl-5-(1H-pyrazol-4-yl)pyridin-2-yl)-1-(3-fluoro-5-methoxybenzyl)-8-(2-hydroxypropyl)-1,3,8-triazaspiro[4.5]decan-2-one]	< 3 nM
CCc1nc(N2CC3(CCN(CCC(F)(F)F)CC3)N(Cc3cccc(OC)c3)C2=O)ccc1-c1cn[nH]c1 [Example 127, 3-(6-ethyl-5-(1H-pyrazol-4-yl)pyridin-2-yl)-1-(3-methoxybenzyl)-8-(3,3,3-trifluoropropyl)-1,3,8-triazaspiro[4.5]decan-2-one]	3 to 30 nM
CCc1nc(N2CC3(CCN(C(C)=O)CC3)N(Cc3cc(F)cc(OC)c3)C2=O)ccc1-c1cn[nH]c1 [Example 89, 8-acetyl-3-(6-ethyl-5-(1H-pyrazol-4-yl)pyridin-2-yl)-1-(3-fluoro-5-methoxybenzyl)-1,3,8-triazaspiro[4.5]decan-2-one]	< 3 nM
COc1cccc(CN2C(=O)N(c3ncc(-c4cn[nH]c4)c(OC)n3)CC23CCN(C(=O)C(C)(C)O)CC3)c1 [Example 212, 8-(2-hydroxy-2-methylpropanoyl)-3-(4-methoxy-5-(1H-pyrazol-4-yl)pyrimidin-2-yl)-1-(3-methoxybenzyl)-1,3,8-triazaspiro[4.5]decan-2-one]	3 to 30 nM
COc1cccc(CN2C(=O)N(c3ccc(-c4cn[nH]c4)cc3)CC23CCN(C(=O)C(C)O)CC3)c1 (centres unmarked) [Example 191, 3-(4-(1H-pyrazol-4-yl)phenyl)-8-(2-hydroxypropanoyl)-1-(3-methoxybenzyl)-1,3,8-triazaspiro[4.5]decan-2-one]	< 3 nM

— US10787450B2 (BRISTOL-MYERS SQUIBB COMPANY, priority 2016, dated 2020)
